Assay results as given in the supplement of paper PMC10307832.

Tests used:
Test in all cases: relative viability (nuclei count vs DMSO), 5 days (fraction); higher = more cells survive
NCI-H2405 = test system: NCI-H2405
How it was run: (§1)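 Five library-drug doses in √10 steps were combined with a fixed anchor-drug dose, or a single drug was given alone, by pin tool to lung cancer cell lines in 1536-well plates the day after seeding. Nuclei were stained and counted after 5 days. Relative viability is the nuclei count in treated wells over that in vehicle wells, taken as the median of duplicate plates.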

EKVX = test system: EKVX
How it was run: as §1

RERF-LC-KJ = test system: RERF-LC-KJ
How it was run: as §1

NCI-H1734 = test system: NCI-H1734
How it was run: as §1

HCC-827 = test system: HCC-827
How it was run: as §1

PC-14 = test system: PC-14
How it was run: as §1

NCI-H520 = test system: NCI-H520
How it was run: as §1

HCC-15 = test system: HCC-15
How it was run: as §1

NCI-H2228 = test system: NCI-H2228
How it was run: as §1

NCI-H322M = test system: NCI-H322M
How it was run: as §1

LK-2 = test system: LK-2
How it was run: as §1

NCI-H1975 = test system: NCI-H1975
How it was run: as §1

LCLC-97TM1 = test system: LCLC-97TM1
How it was run: as §1

NCI-H1355 = test system: NCI-H1355
How it was run: as §1

H3255 = test system: H3255
How it was run: as §1

NCI-H1650 = test system: NCI-H1650
How it was run: as §1

CAL-12T = test system: CAL-12T
How it was run: as §1

NCI-H1755 = test system: NCI-H1755
How it was run: as §1

PC-3 [JPC-3] = test system: PC-3 [JPC-3]
How it was run: as §1

Q: `CC(=O)O[C@@]12CO[C@@H]1C[C@H](O)[C@@]1(C)C(=O)[C@H](O)C3=C(C)[C@@H](OC(=O)[C@H](O)[C@@H](NC(=O)OC(C)(C)C)c4ccccc4)C[C@@](O)([C@@H](OC(=O)c4ccccc4)[C@H]21)C3(C)C` [Docetaxel] + CC1(C)CCC(c2ccc(Cl)cc2)=C(CN2CCN(c3ccc(C(=O)NS(=O)(=O)c4ccc(N[C@H](CCN5CCOCC5)CSc5ccccc5)c(S(=O)(=O)C(F)(F)F)c4)cc3)CC2)C1 [Navitoclax] (partner 0.5 µM) was tested. Which relative viability (NCI-H2405; first compound 0.0002 µM) did it give?
A: 0.907

Q: What about the relative viability (NCI-H2405; first compound 0.000632 µM) of the same compound?
A: 0.543

Q: And the relative viability (NCI-H2405; first compound 0.002 µM)?
A: 0.313

Q: What about the relative viability (NCI-H2405; first compound 0.006325 µM) of the same compound?
A: 0.203

Q: And the relative viability (NCI-H2405; first compound 0.02 µM)?
A: 0.119

Q: And the relative viability (EKVX; first compound 0.0002 µM)?
A: 0.918

Q: And the relative viability (EKVX; first compound 0.000632 µM)?
A: 0.847

Q: What about the relative viability (EKVX; first compound 0.002 µM) of the same compound?
A: 0.37

Q: And the relative viability (EKVX; first compound 0.006325 µM)?
A: 0.196

Q: What about the relative viability (EKVX; first compound 0.02 µM) of the same compound?
A: 0.123

Q: And the relative viability (RERF-LC-KJ; first compound 0.0002 µM)?
A: 0.754

Q: What about the relative viability (RERF-LC-KJ; first compound 0.000632 µM) of the same compound?
A: 0.576

Q: What about the relative viability (RERF-LC-KJ; first compound 0.002 µM) of the same compound?
A: 0.174

Q: What about the relative viability (RERF-LC-KJ; first compound 0.006325 µM) of the same compound?
A: 0.202

Q: What about the relative viability (RERF-LC-KJ; first compound 0.02 µM) of the same compound?
A: 0.154

Q: And the relative viability (NCI-H1734; first compound 0.0002 µM)?
A: 0.697

Q: What about the relative viability (NCI-H1734; first compound 0.000632 µM) of the same compound?
A: 0.819

Q: And the relative viability (NCI-H1734; first compound 0.002 µM)?
A: 0.323

Q: What about the relative viability (NCI-H1734; first compound 0.02 µM) of the same compound?
A: 0.104

Q: And the relative viability (HCC-827; first compound 0.0002 µM)?
A: 1.02

Q: What about the relative viability (HCC-827; first compound 0.000632 µM) of the same compound?
A: 1.02

Q: And the relative viability (HCC-827; first compound 0.002 µM)?
A: 0.943

Q: And the relative viability (HCC-827; first compound 0.006325 µM)?
A: 0.334

Q: And the relative viability (HCC-827; first compound 0.02 µM)?
A: 0.252

Q: And the relative viability (PC-14; first compound 0.0002 µM)?
A: 0.978

Q: What about the relative viability (PC-14; first compound 0.000632 µM) of the same compound?
A: 0.961

Q: What about the relative viability (PC-14; first compound 0.002 µM) of the same compound?
A: 0.201

Q: And the relative viability (PC-14; first compound 0.006325 µM)?
A: 0.0826

Q: And the relative viability (PC-14; first compound 0.02 µM)?
A: 0.0464

Q: What about the relative viability (NCI-H520; first compound 0.0002 µM) of the same compound?
A: 1.07

Q: What about the relative viability (NCI-H520; first compound 0.000632 µM) of the same compound?
A: 0.86

Q: And the relative viability (NCI-H520; first compound 0.002 µM)?
A: 0.283

Q: What about the relative viability (NCI-H520; first compound 0.006325 µM) of the same compound?
A: 0.16

Q: And the relative viability (NCI-H520; first compound 0.02 µM)?
A: 0.156

Q: And the relative viability (HCC-15; first compound 0.0002 µM)?
A: 0.636

Q: What about the relative viability (HCC-15; first compound 0.000632 µM) of the same compound?
A: 0.372

Q: What about the relative viability (HCC-15; first compound 0.002 µM) of the same compound?
A: 0.221

Q: What about the relative viability (HCC-15; first compound 0.006325 µM) of the same compound?
A: 0.161

Q: What about the relative viability (HCC-15; first compound 0.02 µM) of the same compound?
A: 0.0988

Q: What about the relative viability (NCI-H2228; first compound 0.0002 µM) of the same compound?
A: 0.854

Q: And the relative viability (NCI-H2228; first compound 0.000632 µM)?
A: 0.35

Q: And the relative viability (NCI-H2228; first compound 0.002 µM)?
A: 0.156

Q: What about the relative viability (NCI-H2228; first compound 0.006325 µM) of the same compound?
A: 0.114

Q: And the relative viability (NCI-H2228; first compound 0.02 µM)?
A: 0.056

Q: And the relative viability (NCI-H322M; first compound 0.0002 µM)?
A: 1.14

Q: And the relative viability (NCI-H322M; first compound 0.000632 µM)?
A: 1.13

Q: What about the relative viability (NCI-H322M; first compound 0.002 µM) of the same compound?
A: 0.962

Q: What about the relative viability (NCI-H322M; first compound 0.006325 µM) of the same compound?
A: 0.511

Q: And the relative viability (NCI-H322M; first compound 0.02 µM)?
A: 0.306

Q: What about the relative viability (LK-2; first compound 0.0002 µM) of the same compound?
A: 0.805

Q: What about the relative viability (LK-2; first compound 0.000632 µM) of the same compound?
A: 0.556

Q: What about the relative viability (LK-2; first compound 0.002 µM) of the same compound?
A: 0.172

Q: And the relative viability (LK-2; first compound 0.006325 µM)?
A: 0.133

Q: What about the relative viability (LK-2; first compound 0.02 µM) of the same compound?
A: 0.145

Q: What about the relative viability (NCI-H1975; first compound 0.0002 µM) of the same compound?
A: 1.1

Q: What about the relative viability (NCI-H1975; first compound 0.000632 µM) of the same compound?
A: 1.11

Q: And the relative viability (NCI-H1975; first compound 0.002 µM)?
A: 0.276

Q: What about the relative viability (NCI-H1975; first compound 0.006325 µM) of the same compound?
A: 0.252

Q: What about the relative viability (NCI-H1975; first compound 0.02 µM) of the same compound?
A: 0.156

Q: And the relative viability (LCLC-97TM1; first compound 0.000632 µM)?
A: 0.498

Q: And the relative viability (LCLC-97TM1; first compound 0.002 µM)?
A: 0.145

Q: And the relative viability (LCLC-97TM1; first compound 0.006325 µM)?
A: 0.168

Q: What about the relative viability (LCLC-97TM1; first compound 0.02 µM) of the same compound?
A: 0.11

Q: And the relative viability (NCI-H1355; first compound 0.0002 µM)?
A: 0.901

Q: What about the relative viability (NCI-H1355; first compound 0.000632 µM) of the same compound?
A: 0.77

Q: And the relative viability (NCI-H1355; first compound 0.002 µM)?
A: 0.372

Q: And the relative viability (NCI-H1355; first compound 0.006325 µM)?
A: 0.272

Q: What about the relative viability (NCI-H1355; first compound 0.02 µM) of the same compound?
A: 0.175

Q: What about the relative viability (H3255; first compound 0.0002 µM) of the same compound?
A: 0.399

Q: What about the relative viability (H3255; first compound 0.000632 µM) of the same compound?
A: 0.46

Q: What about the relative viability (H3255; first compound 0.002 µM) of the same compound?
A: 0.181

Q: And the relative viability (H3255; first compound 0.006325 µM)?
A: 0.141

Q: What about the relative viability (H3255; first compound 0.02 µM) of the same compound?
A: 0.102

Q: And the relative viability (NCI-H1650; first compound 0.0002 µM)?
A: 1.13

Q: What about the relative viability (NCI-H1650; first compound 0.000632 µM) of the same compound?
A: 1.02

Q: What about the relative viability (NCI-H1650; first compound 0.002 µM) of the same compound?
A: 0.182

Q: And the relative viability (NCI-H1650; first compound 0.006325 µM)?
A: 0.19

Q: What about the relative viability (NCI-H1650; first compound 0.02 µM) of the same compound?
A: 0.104

Q: What about the relative viability (CAL-12T; first compound 0.0002 µM) of the same compound?
A: 1.02

Q: What about the relative viability (CAL-12T; first compound 0.000632 µM) of the same compound?
A: 0.694

Q: What about the relative viability (CAL-12T; first compound 0.002 µM) of the same compound?
A: 0.178

Q: And the relative viability (CAL-12T; first compound 0.02 µM)?
A: 0.101

Q: And the relative viability (NCI-H1755; first compound 0.0002 µM)?
A: 0.982

Q: And the relative viability (NCI-H1755; first compound 0.000632 µM)?
A: 0.98

Q: What about the relative viability (NCI-H1755; first compound 0.002 µM) of the same compound?
A: 0.401

Q: And the relative viability (NCI-H1755; first compound 0.006325 µM)?
A: 0.232

Q: What about the relative viability (NCI-H1755; first compound 0.02 µM) of the same compound?
A: 0.136

Q: And the relative viability (PC-3 [JPC-3]; first compound 0.0002 µM)?
A: 0.82

Q: And the relative viability (PC-3 [JPC-3]; first compound 0.000632 µM)?
A: 0.721

Q: And the relative viability (PC-3 [JPC-3]; first compound 0.002 µM)?
A: 0.527

Q: What about the relative viability (PC-3 [JPC-3]; first compound 0.006325 µM) of the same compound?
A: 0.229

Q: And the relative viability (PC-3 [JPC-3]; first compound 0.02 µM)?
A: 0.202
